Measured values as given in article PMC12169663, “Deciphering the Tumor Uptake of Heterobivalent (SST2/Albumin) [^64Cu]Cu-NODAGA-cLAB-TATEs” (Journal of Medicinal Chemistry, 2025).
*1 amine or outer side, *2 acyl side, *3 side chain or, on linkers, in order; H or OH if unused. Where a SMILES comes first, the peptide text is derived from it. Bridges are numbered along the chain shown (N, C = ends). [ ]: non-standard residue; d: D form. The star is where a group is joined. Ala(1-(4-CO-Ph)triazol-4-yl) = O=C([C@H](Cc1cn(-c2ccc(C(=O)[*:3])cc2)nn1)N[*:1])[*:2]; X1 = O=C(O)CN1CCN(CC(=O)O)CCN([C@H](CCC(=O)*)C(=O)O)CC1; X2 = Cc1ccc(CCCC(=O)NCCCC[C@H](N*)C(N)=O)cc1; AEEA = NCCOCCOCC(=O)O

What was measured:
[1] = Plasma stability assay, human plasma; assay type: in vitro ADME; conditions: 37 °C, up to 24 h, single experiment, read-out: t1/2 (plasma), human
Excerpt: Previously, we discovered that the ^64Cu-labeled NODAGA-cLAB-TATEs with a primary amide functionality within the albumin-binding moiety are subject to a metabolic transformation in mouse plasma. In fact, the primary amide is slowly hydrolyzed to the carboxylic acid, which turned out to be catalyzed by plasma carboxylesterases as proven by blocking this transformation in the presence of bis-para-nitrophenylphosphate. […] As this transformation entails also an increase in the binding affinity to albumin, there might be effects on the biodistribution in mice, in particular the blood circulation time. To investigate this, NODAGA-cLAB6-TATE was designed, with cLAB6 (N3Bz-D-Lys(MPB)-NH2) representing the D-configured pendant of cLAB4 (N3Bz-L-Lys(MPB)-NH2). […] However, the apparent half-lives for both compounds (≈13 and >24 h) are longer compared to the half-lives previously determined for [ ^ 64 Cu]-Cu-NODAGA-cLAB3-TATE and [ ^ 64 Cu]-Cu-NODAGA-cLAB4-TATE (≈6 and ≈3 h, respectively). […]
(§1) Plasma stability of the radioligands was done as previously described for NODAGA-cLAB-TATE and NODAGA-NES-TATEs. , Briefly, an aliquot of the radioligand was added to plasma and stability was assessed at different time points by withdrawing an aliquot, followed by protein precipitation and analysis by radio-HPLC.

[2] = Plasma stability assay, mouse plasma; assay type: in vitro ADME
Excerpt: Previously, we discovered that the ^64Cu-labeled NODAGA-cLAB-TATEs with a primary amide functionality within the albumin-binding moiety are subject to a metabolic transformation in mouse plasma. In fact, the primary amide is slowly hydrolyzed to the carboxylic acid, which turned out to be catalyzed by plasma carboxylesterases as proven by blocking this transformation in the presence of bis-para-nitrophenylphosphate. […] As this transformation entails also an increase in the binding affinity to albumin, there might be effects on the biodistribution in mice, in particular the blood circulation time. To investigate this, NODAGA-cLAB6-TATE was designed, with cLAB6 (N3Bz-D-Lys(MPB)-NH2) representing the D-configured pendant of cLAB4 (N3Bz-L-Lys(MPB)-NH2). […] However, the apparent half-lives for both compounds (≈13 and >24 h) are longer compared to the half-lives previously determined for [ ^ 64 Cu]-Cu-NODAGA-cLAB3-TATE and [ ^ 64 Cu]-Cu-NODAGA-cLAB4-TATE (≈6 and ≈3 h, respectively). For better comparability, the stability of [ ^ 64 Cu]-Cu-NODAGA-cLAB4-TATE was again examined with the same mouse plasma batch used for [ ^ 64 Cu]-Cu-NODAGA-cLAB5-TATE and [ ^ 64 Cu]-Cu-NODAGA-cLAB4- scr TATE. […] Therefore, the discrepancy with our previously reported stability data in mouse plasma might result from differences in the activity of plasma carboxylesterases in the obtained mouse plasma. However, the rate of amide hydrolysis is indeed lower for [ ^ 64 Cu]-Cu-NODAGA-cLAB4- scr TATE, independent of the mouse plasma batch, which might indicate that the actual amino acid sequence in these peptides affects the recognition by the plasma carboxylesterases.
2 Stability of the ^64Cu-labeled TATE derivatives in mouse plasma. (A) Radio-HPLC chromatograms of [^64Cu]-Cu-NODAGA-cLAB5-TATE (red), [^64Cu]-Cu-NODAGA-cLAB6-TATE (green), and [^64Cu]-Cu-NODAGA-cLAB- scr TATE (blue) after ^64Cu-labeling and incubation in mouse plasma for 24 h show the transformation of [^64Cu]-Cu-NODAGA-cLAB5-TATE and [^64Cu]-Cu-NODAGA-cLAB4- scr TATE into a metabolite of higher retention time (see the Discussion for explanation). (B) Plot of residual intact radioligands upon incubation with mouse plasma including nonlinear regression (black line) according to one-phase decay for [^64Cu]-Cu-NODAGA-cLAB5-TATE (red circles). The dotted lines represent fractions of 0.5 and 0.9. Data shown are mean values (±SD) from 1 to 3 experiments (each experiment was performed in single execution). […]
as §1

[3] = biological target: human serum albumin (HSA) (Homo sapiens, UniProt P02768); assay: Radiometric ultrafiltration assay for binding to HSA
Procedure: The ultrafiltration assay used to quantify the binding of the ^64Cu-labeled peptides to HSA was performed as previously described for NODAGA-cLAB-TATEs. , Briefly, a constant activity amount of the radioligands (10–15 MBq) were mixed with different HSA concentrations (200 nM–1.4 mM). Aliquots were loaded into the ultrafiltration devices (4104 centrifugal filter units by Millipore; 30 000 Da nominal molecular weight limit, methylcellulose micropartition membranes) and centrifuged. After centrifugation, aliquots from the top and bottom fractions were measured in a γ-counter (PerkinElmer, Wizard^2 2480 automatic gamma counter). The retained fraction was calculated as a quotient of these measurements. The dissociation constant, K d, was calculated using the Morrison equation.

[4] = biological target: HSA (Homo sapiens, UniProt P02768); assay: Estimation of Kd[HSA] from structure-activity relationships of the isolated cLABs
Excerpt: Table S1: Comparison of estimated and determined Kd[HSA] values for the 64Cu-labeled TATE derivatives bearing an albumin […]
predicted determinedi predict./determ. cLAB1 R1-pentanoyl-D-Lys(IPB)-OH 8.0a 3.1j 2.6 cLAB2 R1-benzoyl-L-Lys(IPB)-OH 0.36b 1.8j 0.2 cLAB3 R1-benzoyl-L-Lys(IPB)-NH2 7.9c 9.2j 0.9 […]
cLAB4-scrTATE R1-benzoyl-L-Lys(MPB)-NH2 66d 42 1.6 a Represents the Kd value of the albumin binder (R)-1e (5-N3-pentanoyl-D-Lys(IPB)-OH).1 b Represents the Kd value of the albumin binder (S)-1f (4-N3-benzoyl-L-Lys(IPB)-OH).1 c Calculated using the Kd value of the respective carboxylic acid ((S)-1f) and a factor of 22, which is the factor between Acetyl-L-Lys(IPB)-OH ((S)-1c) an Acetyl-L-Lys(IPB)-NH2 ((S)-2a).1 […]
f Calculated using the Kd value of the respective carboxylic acid ((S)-1f) and the factors of 22 (carboxylic acid → carboxamide) and 2.2 (L → D configuration, factor between (S)-1c and (R)-1c).1 g Represents the Kd value determined for the non-radioactive compound using the fluorescence-based competition […]
h Compound names were abbreviated. i Determined using the radiometric ultrafiltration assay described in the main article. j Previously determined by us.1

Sequence of human serum albumin (HSA) (P02768 25-609): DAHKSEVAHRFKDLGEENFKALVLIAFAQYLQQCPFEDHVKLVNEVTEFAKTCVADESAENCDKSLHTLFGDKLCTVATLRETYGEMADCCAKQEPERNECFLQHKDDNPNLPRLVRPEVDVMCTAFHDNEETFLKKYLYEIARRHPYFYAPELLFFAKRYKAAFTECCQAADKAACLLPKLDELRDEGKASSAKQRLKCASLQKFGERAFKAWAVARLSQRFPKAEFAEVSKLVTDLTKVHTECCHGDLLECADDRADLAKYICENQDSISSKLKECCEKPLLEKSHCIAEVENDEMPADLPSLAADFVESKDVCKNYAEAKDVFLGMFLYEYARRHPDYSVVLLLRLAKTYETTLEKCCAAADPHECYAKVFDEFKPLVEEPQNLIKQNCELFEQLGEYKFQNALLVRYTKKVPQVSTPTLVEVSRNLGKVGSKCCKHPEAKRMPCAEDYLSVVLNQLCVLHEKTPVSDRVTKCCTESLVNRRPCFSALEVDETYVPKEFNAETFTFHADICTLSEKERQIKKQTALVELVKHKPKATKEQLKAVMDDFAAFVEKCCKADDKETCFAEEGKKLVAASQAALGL
Sequence of HSA (P02768 25-609): as above

half-life [1]: > 24 h
half-life ([2]; 37 °C, up to 24 h, single experiment, read-out: t1/2 (plasma), mouse): > 24 h
hydrolysis of the primary amide in mouse plasma ([2]; 24 h, radio-HPLC): hydrolyzed
Kd [3]: 42 µM
Ratio Kd predict./determ. [4]: 1.6
Structure (SMILES): Cc1ccc(CCCC(=O)NCCCC[C@H](NC(=O)c2ccc(-n3cc(C[C@H](NC(=O)CC[C@H](C(=O)O)N4CCN(CC(=O)O)CCN(CC(=O)O)CC4)C(=O)NCCOCCOCC(=O)N[C@@H](CCCCN)C(=O)N[C@H]4CSSC[C@@H](C(=O)N[C@H](C(=O)O)[C@@H](C)O)NC(=O)[C@@H](Cc5c[nH]c6ccccc56)NC(=O)[C@@H](Cc5ccccc5)NC(=O)[C@H]([C@@H](C)O)NC(=O)[C@H](Cc5ccc(O)cc5)NC4=O)nn3)cc2)C(N)=O)cc1 [[64Cu]Cu-NODAGA-cLAB4-scrTATE, metal not drawn] (X1-[Ala(1-(4-CO-Ph)triazol-4-yl)](X2)[AEEA]KCYT[dF][dW]CT-OH; disulfide 4-9)
